{
  "source": "patent US20080188503A1",
  "about": "“New Compounds II” (AstraZenaca AB, priority 2006, published 2008)",
  "data": [
    {"target": "T1, recombinant human GSK3β (Homo sapiens, UniProt P49841)", "T1 construct": "purchased Dundee University, UK", "T1 sequence (P49841 whole entry)": "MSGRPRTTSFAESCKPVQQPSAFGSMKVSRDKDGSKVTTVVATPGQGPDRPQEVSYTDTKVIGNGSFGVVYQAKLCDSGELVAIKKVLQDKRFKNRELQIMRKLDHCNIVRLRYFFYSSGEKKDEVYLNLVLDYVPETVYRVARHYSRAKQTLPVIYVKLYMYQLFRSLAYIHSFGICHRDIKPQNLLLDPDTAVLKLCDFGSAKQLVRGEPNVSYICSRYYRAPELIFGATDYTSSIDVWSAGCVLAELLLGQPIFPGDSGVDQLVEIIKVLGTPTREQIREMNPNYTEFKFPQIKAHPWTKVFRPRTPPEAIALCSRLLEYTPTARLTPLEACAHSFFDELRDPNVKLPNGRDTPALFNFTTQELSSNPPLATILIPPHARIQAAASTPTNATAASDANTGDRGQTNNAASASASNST", "experiment": "GSK3β Scintillation Proximity Assay (ATP competition)", "assay_type": "biochemical", "conditions": "recombinant human GSK3β SPA; 1 μM ATP, 1 μM biotinylated peptide substrate; Ki calculated with Km of ATP 20 μM", "protocol": "Determination of ATP Competition in Scintillation Proximity GSK3β Assay.\nGSK3β Scintillation Proximity Assay.\nThe competition experiments were carried out in duplicate with 10 different concentrations of the inhibitors in clear-bottom microtiter plates (Wallac, Finland). A biotinylated peptide substrate, Biotin-Ala-Ala-Glu-Glu-Leu-Asp-Ser-Arg-Ala-Gly-Ser(PO3H2)-Pro-Gln-Leu (AstraZeneca, Lund), was added at a final concentration of 1 μM in an assay buffer containing 1 mU recombinant human GSK3β (Dundee University, UK), 12 mM morpholinepropanesulfonic acid (MOPS), pH 7.0, 0.3 mM EDTA, 0.01% β-mercaptoethanol, 0.004% Brij 35 (a […] detergent), 0.5% glycerol and 0.5 μg BSA/25 μl. The reaction was initiated by the addition of 0.04 μCi [γ-^33P]ATP (Amersham, UK) and unlabelled ATP at a final concentration of 1 μM and assay volume of 25 μl. After incubation for 20 minutes at room temperature, each reaction was terminated by the addition of 25 μl stop solution containing 5 mM EDTA, 50 μM ATP, 0.1% Triton X-100 and 0.25 mg streptavidin coated Scintillation Proximity Assay (SPA) beads (Amersham, UK). After 6 hours the radioactivity was determined in a liquid scintillation counter (1450 MicroBeta Trilux, Wallac). The inhibition curves were analysed by non-linear regression using GraphPad Prism, USA. The Km value of ATP for GSK3β, used to calculate the inhibition constants (Ki) of the various compounds, was 20 μM.", "units": {"Ki": "nM"}, "values": [
      {"smiles": "Cc1ncc(-c2nc(Nc3cncnc3)ncc2F)n1C1CCOCC1", "note": "[Example 1, 5-Fluoro-4-[2-methyl-1-(tetrahydro-2H-pyran-4-yl)-1H-imidazol-5-yl]-N-pyrimidin-5-ylpyrimidin-2-amine]", "Ki": 220},
      {"smiles": "CC(=O)c1cncc(Nc2ncc(F)c(-c3cnc(C)n3C3CCOCC3)n2)c1", "note": "[Example 2, 1-[5-({5-Fluoro-4-[2-methyl-1-(tetrahydro-2H-pyran-4-yl)-1H-imidazol-5-yl]pyrimidin-2-yl}amino)pyridin-3-yl]ethanone]", "Ki": 49},
      {"smiles": "COc1cccc(Nc2ncc(F)c(-c3cnc(C)n3C3CCOCC3)n2)n1", "note": "[Example 3, 5-Fluoro-N-(6-methoxypyridin-2-yl)-4-[2-methyl-1-(tetrahydro-2H-pyran-4-yl)-1H-imidazol-5-yl]pyrimidin-2-amine]", "Ki": 530},
      {"smiles": "Cc1ncc(-c2nc(Nc3ccc(C(F)(F)F)cn3)ncc2F)n1C1CCOCC1", "note": "[Example 4, 5-Fluoro-4-[2-methyl-1-(tetrahydro-2H-pyran-4-yl)-1H-imidazol-5-yl]-N-[5-(trifluoromethyl)pyridin-2-yl]pyrimidin-2-amine]", "Ki": 2600},
      {"smiles": "Cc1ccc(Nc2ncc(F)c(-c3cnc(C)n3C3CCOCC3)n2)cn1", "note": "[Example 5, 5-Fluoro-N-(6-methylpyridin-3-yl)-4-[2-methyl-1-(tetrahydro-2H-pyran-4-yl)-1H-imidazol-5-yl]pyrimidin-2-amine]", "Ki": 28},
      {"smiles": "COc1ccnc(Nc2ncc(F)c(-c3cnc(C)n3C3CCOCC3)n2)c1", "note": "[Example 6, 5-Fluoro-N-(4-methoxypyridin-2-yl)-4-[2-methyl-1-(tetrahydro-2H-pyran-4-yl)-1H-imidazol-5-yl]pyrimidin-2-amine]", "Ki": 1100},
      {"smiles": "Cc1ncc(-c2nc(Nc3ccc(CN4CCOCC4)nc3)ncc2F)n1C1CCOCC1", "note": "[Example 10, 5-Fluoro-4-[2-methyl-1-(tetrahydro-2H-pyran-4-yl)-1H-imidazol-5-yl]-N-[6-(morpholin-4-ylmethyl)pyridin-3-yl]pyrimidin-2-amine]", "Ki": 64},
      {"smiles": "Cc1ncc(-c2nc(Nc3ccc(CN4CCCCC4)nc3)ncc2F)n1C1CCOCC1", "note": "[Example 12, 5-Fluoro-4-[2-methyl-1-(tetrahydro-2H-pyran-4-yl)-1H-imidazol-5-yl]-N-[6-(piperidin-1-ylmethyl)pyridin-3-yl]pyrimidin-2-amine]", "Ki": 260},
      {"smiles": "Cc1ncc(-c2nc(Nc3ccc(CN4CCCN(C)CC4)nc3)ncc2F)n1C1CCOCC1", "note": "[Example 13, 5-Fluoro-N-{6-[(4-methyl-1,4-diazepan-1-yl)methyl]pyridin-3-yl}-4-[2-methyl-1-(tetrahydro-2H-pyran-4-yl)-1H-imidazol-5-yl]pyrimidin-2-amine]", "Ki": 290},
      {"smiles": "Cc1ncc(-c2nc(Nc3ccc(CN4CCN(c5ncccn5)CC4)nc3)ncc2F)n1C1CCOCC1", "note": "[Example 14, 5-Fluoro-4-[2-methyl-1-(tetrahydro-2H-pyran-4-yl)-1H-imidazol-5-yl]-N-{6-[(4 pyrimidin-2-ylpiperazin-1-yl)methyl]pyridin-3-yl}pyrimidin-2-amine]", "Ki": 10},
      {"smiles": "COC[C@@H]1CCCN1Cc1ccc(Nc2ncc(F)c(-c3cnc(C)n3C3CCOCC3)n2)cn1", "note": "[Example 15, 5-Fluoro-N-(6-{[(2S)-2-(methoxymethyl)pyrrolidin-1-yl]methyl}pyridin-3-yl)-4-[2-methyl-1-(tetrahydro-2H-pyran-4-yl)-1H-imidazol-5-yl]pyrimidin-2-amine]", "Ki": 1300},
      {"smiles": "CC(=O)N1CCCN(Cc2ccc(Nc3ncc(F)c(-c4cnc(C)n4C4CCOCC4)n3)cn2)CC1", "note": "[Example 16, N-{6-[(4-Acetyl-1,4-diazepan-1-yl)methyl]pyridin-3-yl}-5-fluoro-4-[2-methyl-1-(tetrahydro-2H-pyran-4-yl)-1H-imidazol-5-yl]pyrimidin-2-amine]", "Ki": 75},
      {"smiles": "Cc1ncc(-c2nc(Nc3ccc(CN4CC(C)OC(C)C4)nc3)ncc2F)n1C1CCOCC1", "note": "(stereo not shown) [Example 17, N-{6-[(2,6-Dimethylmorpholin-4-yl)methyl]pyridin-3-yl}-5-fluoro-4-[2-methyl-1-(tetrahydro-2H-pyran-4-yl)-1H-imidazol-5-yl]pyrimidin-2-amine]", "Ki": 760},
      {"smiles": "Cc1ncc(-c2nc(Nc3ccc(CN4CCC(F)(F)CC4)nc3)ncc2F)n1C1CCOCC1", "note": "[Example 18, N-{6-[(4,4-Difluoropiperidin-1-yl)methyl]pyridin-3-yl}-5-fluoro-4-[2-methyl-1-(tetrahydro-2H-pyran-4-yl)-1H-imidazol-5-yl]pyrimidin-2-amine]", "Ki": 42},
      {"smiles": "Cc1ncc(-c2nc(Nc3ccc(CN4CCCC4)nc3)ncc2F)n1C1CCOCC1", "note": "[Example 19, 5-Fluoro-4-[2-methyl-1-(tetrahydro-2H-pyran-4-yl)-1H-imidazol-5-yl]-N-[6-(pyrrolidin-1-ylmethyl)pyridin-3-yl]pyrimidin-2-amine]", "Ki": 210},
      {"smiles": "Cc1ncc(-c2nc(Nc3ccc(CNCc4ccc(Cl)nc4)nc3)ncc2F)n1C1CCOCC1", "note": "[Example 20, N-[6-({[(6-Chloropyridin-3-yl)methyl]amino}methyl)pyridin-3-yl]-5-fluoro-4-[2-methyl-1-(tetrahydro-2H-pyran-4-yl)-1H-imidazol-5-yl]pyrimidin-2-amine]", "Ki": 37},
      {"smiles": "Cc1ncc(-c2nc(Nc3ccc(CN4CCCOCC4)nc3)ncc2F)n1C1CCOCC1", "note": "[Example 21, 5-Fluoro-4-[2-methyl-1-(tetrahydro-2H-pyran-4-yl)-1H-imidazol-5-yl]-N-[6-(1,4 oxazepan-4-ylmethyl)pyridin-3-yl]pyrimidin-2-amine]", "Ki": 79},
      {"smiles": "COC1CCN(Cc2ccc(Nc3ncc(F)c(-c4cnc(C)n4C4CCOCC4)n3)cn2)CC1", "note": "[Example 22, 5-Fluoro-N-{6-[(4-methoxypiperidin-1-yl)methyl]pyridin-3-yl}-4-[2-methyl-1-(tetrahydro-2H-pyran-4-yl)-1H-imidazol-5-yl]pyrimidin-2-amine]", "Ki": 150},
      {"smiles": "Cc1ncc(-c2nc(Nc3ccc(CN4CCCC(CO)C4)nc3)ncc2F)n1C1CCOCC1", "note": "(stereo not shown) [Example 23, (1-{[5-({5-Fluoro-4-[2-methyl-1-(tetrahydro-2H-pyran-4-yl)-1H-imidazol-5-yl]pyrimidin-2-yl}amino)pyridin-2-yl]methyl}piperidin-3-yl)methanol]", "Ki": 170},
      {"smiles": "Cc1ncc(-c2nc(Nc3ccc(CNCCCN4CCCC4=O)nc3)ncc2F)n1C1CCOCC1", "note": "[Example 24, 1-[3-({[5-({5-Fluoro-4-[2-methyl-1-(tetrahydro-2H-pyran-4-yl)-1H-imidazol-5-yl]pyrimidin-2-yl}amino)pyridin-2-yl]methyl}amino)propyl]pyrrolidin-2-one]", "Ki": 230},
      {"smiles": "Cc1ncc(-c2nc(Nc3ccc(CN4CCC(N5CCCC5)CC4)nc3)ncc2F)n1C1CCOCC1", "note": "[Example 25, 5-Fluoro-4-[2-methyl-1-(tetrahydro-2H-pyran-4-yl)-1H-imidazol-5-yl]-N-{6-[(4 pyrrolidin-1-ylpiperidin-1-yl)methyl]pyridin-3-yl}pyrimidin-2-amine]", "Ki": 210},
      {"smiles": "Cc1ncc(-c2nc(Nc3ccc(CN(CCC#N)CC4CCCO4)nc3)ncc2F)n1C1CCOCC1", "note": "(stereo not shown) [Example 26, 3-[{[5-({5-Fluoro-4-[2-methyl-1-(tetrahydro-2H-pyran-4-yl)-1H-imidazol-5-yl]pyrimidin-2-yl}amino)pyridin-2-yl]methyl}(tetrahydrofuran-2-ylmethyl)amino]propanenitrile]", "Ki": 75},
      {"smiles": "Cc1ncc(-c2nc(Nc3ccc(CN4CCC4)nc3)ncc2F)n1C1CCOCC1", "note": "[Example 27, N-[6-(Azetidin-1-ylmethyl)pyridin-3-yl]-5-fluoro-4-[2-methyl-1-(tetrahydro-2H-pyran-4-yl)-1H-imidazol-5-yl]pyrimidin-2-amine]", "Ki": 330},
      {"smiles": "CCN(CCOC)Cc1ccc(Nc2ncc(F)c(-c3cnc(C)n3C3CCOCC3)n2)cn1", "note": "[Example 28, N-(6-{[Ethyl(2-methoxyethyl)amino]methyl}pyridin-3-yl)-5-fluoro-4-[2-methyl-1-(tetrahydro-2H-pyran-4-yl)-1H-imidazol-5-yl]pyrimidin-2-amine]", "Ki": 280},
      {"smiles": "Cc1ncc(-c2nc(Nc3ccc(CNCC#N)nc3)ncc2F)n1C1CCOCC1", "note": "[Example 29, ({[5-({5-Fluoro-4-[2-methyl-1-(tetrahydro-2H-pyran-4-yl)-1H-imidazol-5-yl]pyrimidin-2-yl}amino)pyridin-2-yl]methyl}amino)acetonitrile]", "Ki": 48},
      {"smiles": "Cc1ncc(-c2nc(Nc3cncc4ccccc34)ncc2F)n1C1CCOCC1", "note": "[Example 30, {5-Fluoro-4-[2-methyl-3-(tetrahydro-pyran-4-yl)-3H-imidazol-4-yl]-pyrimidin-2-yl}-isoquinolin-4-yl-amine]", "Ki": 200},
      {"smiles": "Cc1ncc(-c2nc(Nc3ccncc3)ncc2F)n1C1CCOCC1", "note": "[Example 31, {5-Fluoro-4-[2-methyl-3-(tetrahydro-pyran-4-yl)-3H-imidazol-4-yl]-pyrimidin-2-yl}-pyridin-4-yl-amine]", "Ki": 39},
      {"smiles": "Cc1ncc(-c2nc(NC3CCN(C(=O)OC(C)(C)C)CC3)ncc2F)n1C1CCOCC1", "note": "[Example 33, tert-Butyl 4-({5-fluoro-4-[2-methyl-1-(tetrahydro-2H-pyran-4-yl)-1H-imidazol-5-yl]pyrimidin-2-yl}amino)piperidine-1-carboxylate]", "Ki": 210}
    ]}
  ]
}
